One compound from BindingDB's records for doi:10.1016/j.bmcl.2011.11.008 (Korea Research Institute of Bioscience and Biotechnology, 2011) can be followed below.

Assay [1] in a line: Inhibition of PRL-3-mediated cell migration in human DLD1 cells after 15 hrs by crystal violet staining based microscopic assay.
The nature of assay [2]: Inhibition of PRL-3-mediated cell invasion in human DLD1 cells after 20 hrs using crystal violet staining by Matrigel invasion assay.

As for `Cc1cc(O)c2c(c1)C(=O)c1cc(O)cc(O)c1C2=O` [1,3,8-trihydroxy-6-methylanthra-9,10-quinone], the values for the IC50 in assay [1] and in assay [2] were 28 µM and 35 µM, respectively.
